Experiments:
Assay type in all cases: biochemical
[1] = target: T1, PKR R510Q (Homo sapiens, UniProt P30613, R510Q); test: PKR R510Q Single Point Percent Activation Assay; conditions: for activation at 1 µM: read-out: Act. % 510Q
Method in brief: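 Test compound was used at a single concentration of 1 μM and preincubated 60 min at room temperature with PKR R510Q (40 ng/well). The buffer was 50 mM Tris pH 7.5, 100 mM KCl, 5 mM MgCl2, 1 mM DTT and 0.03% BSA. The reaction was started with 0.2 mM ADP and read as OD340 in an LDH-coupled system (0.11 mM PEP, 180 μM NADH).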

[2] = target: T2, PKR R532W (Homo sapiens, UniProt P30613, R532W); test: PKR R532W Single Point Percent Activation Assay; conditions: for activation at 1 µM: read-out: Act, % 532W
T2 sequence (P30613 whole entry R532W): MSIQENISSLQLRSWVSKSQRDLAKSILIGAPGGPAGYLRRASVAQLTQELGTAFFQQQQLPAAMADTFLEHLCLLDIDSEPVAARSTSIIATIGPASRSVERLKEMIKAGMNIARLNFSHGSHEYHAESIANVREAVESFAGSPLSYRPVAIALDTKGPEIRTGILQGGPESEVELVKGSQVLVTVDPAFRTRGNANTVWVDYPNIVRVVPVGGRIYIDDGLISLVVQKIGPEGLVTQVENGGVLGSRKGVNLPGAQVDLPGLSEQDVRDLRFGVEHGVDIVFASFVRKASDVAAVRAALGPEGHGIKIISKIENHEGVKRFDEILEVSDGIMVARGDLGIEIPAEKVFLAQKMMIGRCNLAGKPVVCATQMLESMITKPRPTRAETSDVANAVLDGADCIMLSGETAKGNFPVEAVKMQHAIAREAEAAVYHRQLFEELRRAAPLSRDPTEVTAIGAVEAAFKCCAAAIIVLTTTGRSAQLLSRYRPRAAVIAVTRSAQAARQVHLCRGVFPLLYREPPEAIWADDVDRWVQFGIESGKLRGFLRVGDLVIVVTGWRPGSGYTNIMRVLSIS
Method in brief: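 PKR R532W (100 ng/well) preincubated 60 min at RT with compound at 1 μM in Tris pH 7.5, KCl, MgCl2, DTT, BSA. Reaction started with ADP (0.36 mM), with PEP 0.1 mM, NADH 180 μM and LDH coupling; read at OD340, room temperature.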

[3] = target: PKR T384W (Homo sapiens, UniProt P30613, T384W); test: PKR T384W Single Point Percent Activation Assay; conditions: for activation at 1 µM: read-out: Act. % 384W
Chain of PKR T384W (Homo sapiens, UniProt P30613, T384W) (P30613 whole entry T384W): as the sequence (P30613 whole entry R532W) above, with T384W, W532R counted along it
Method in brief: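 Soluble PKR T384W (300 ng/well) preincubated 60 min at RT with 1 μM compound in 50 mM Tris pH 7.5, 100 mM KCl, 5 mM MgCl2, 1 mM DTT, 0.03% BSA. Started with ADP (0.08 mM); PEP 0.23 mM, LDH-coupled NADH (180 μM) consumption read at OD340, room temperature.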

[4] = target: PKR wt (Homo sapiens, UniProt P30613); test: PKR WT Single Point Percent Activation Assay
Chain of PKR wt (P30613 whole entry): as the sequence (P30613 whole entry R532W) above, with W532R counted along it
Method in brief: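 Single concentration of 1 μM compound preincubated 60 min at RT with PKR wt (100 ng/well) in Tris pH 7.5, KCl, MgCl2, DTT, BSA. Reaction started with ADP (0.48 mM final) with PEP 0.15 mM, coupled LDH/NADH (180 μM), read at OD340, room temperature; given as percent activation.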

[5] = target: T1, PKR R510Q; test: PKR Mutant Assay (AC50), PKR R510Q
Procedure: (§1) • PKR or PKR mutant enzyme solution was diluted in assay buffer. • 2 μL of test compound was added into wells first, and then 180 μL reaction mix was added. • Reactions mixture with test compound was assembled except for ADP, and plates were stored for 60 minutes at room temperature. • 20 uL ADP was added to start reaction at room temperature and reaction progress was measured as changes in absorbance at 340 nm wavelength at room temperature.
(§2) Test Compound Preparation: • Test compound stock was made at 100× concentration in 100% DMSO (10 mM) • 1 to 3 dilutions were made for 11 points (i.e. 50 μl of first concentration added to 100 μl 100% DMSO to yield 3.33 mM, 50 μl of this added to 100 μl DMSO to yield 1.11 mM, and so forth) • 1 to 100 dilution into assay (2 μl in 200 μl) yielded starting concentration of 100 μM, decreasing 3 fold for 11 points. Assay Buffer: 100 mM KCl, 50 mM Tris 7.5, 5 mM MgCl2, 1 mM DTT, 0.03% BSA Reaction Mixture: PKR mutant enzyme: 80-400 ng/well; ADP: 0.22-1.65 mM; PEP: 0.1-0.5 mM; NADH: 180 uM; LDH: 0.5 units (Sigma#59023); DTT: 1 mM; BSA: 0.03%.

[6] = target: wild type PKR (Homo sapiens, UniProt P30613); test: PKR Mutant Assay (AC50), wild type PKR; conditions: read-out: PKR WT AC50
Chain of wild type PKR (P30613 whole entry): as the sequence (P30613 whole entry R532W) above, with W532R counted along it
Procedure: as §1, §2

[7] = target: T2, PKR R532W; test: PKR Mutant Assay (AC50), PKR R532W
Procedure: as §1, §2

[8] = target: PKR T384W (Homo sapiens, UniProt P30613); test: PKR Mutant Assay (AC50), PKR T384W
Chain of PKR T384W (Homo sapiens, UniProt P30613) (P30613 whole entry T384M): as the sequence (P30613 whole entry R532W) above, with T384M, W532R counted along it
Procedure: as §1, §2

[9] = target: PKR G364D (Homo sapiens, UniProt P30613, G364D); test: PKR Mutant Assay (AC50), PKR G364D
Chain of PKR G364D (P30613 whole entry G364D): as the sequence (P30613 whole entry R532W) above, with G364D, W532R counted along it
Procedure: as §1, §2

[10] = target: PKR R479H (Homo sapiens, UniProt P30613, R479H); test: PKR Mutant Assay (AC50), PKR R479H
Chain of PKR R479H (P30613 whole entry R479H): as the sequence (P30613 whole entry R532W) above, with R479H, W532R counted along it
Procedure: as §1, §2

T1 sequence (P30613 whole entry R510Q): as the sequence (P30613 whole entry R532W) above, with R510Q, W532R counted along it

| Compound | activation at 1 µM [1] [%] | activation at 1 µM [2] [%] | activation at 1 µM [3] [%] | activation at 1 µM [4] [%] | AC50 [5] [µM] | AC50 [6] [µM] | AC50 [7] [µM] | AC50 [8] [µM] | AC50 [9] [µM] | AC50 [10] [µM] | Act. % 510Q ([1]; % activation at 1 μM) | Act, % 532W ([2]; % activation at 1 μM) | Act. % 384W ([3]; % activation at 1 μM) | Act. % WT ([4]; % activation at 1 μM) |
| --- | --- | --- | --- | --- | --- | --- | --- | --- | --- | --- | --- | --- | --- | --- |
| CC1CN(Cc2ccccc2)CC(C)N1C(=O)c1ccc(NS(=O)(=O)c2cccc3cccnc23)cc1 (centres unmarked) | 101 to 500 | 101 to 500 | 101 to 500 | 101 to 500 | < 0.1 |  |  |  |  |  |  |  |  |  |
| CC(C)OC(=O)N1[C@H](C)CN(C(=O)c2ccc(NS(=O)(=O)c3cccc4cccnc34)cc2)C[C@@H]1C | 101 to 500 | 101 to 500 | 101 to 500 | 101 to 500 |  | < 0.1 | > 0.5 |  |  |  |  |  |  |  |
| CCOC(=O)N1CCN(C(=O)c2ccc(NS(=O)(=O)c3cccc4cccnc34)cc2)[C@@H](C)C1 | 1 to 100 | 101 to 500 | 101 to 500 | 101 to 500 |  | > 0.5 | > 0.5 |  |  |  |  |  |  |  |
| CC(C)OC(=O)N1CCN(C(=O)c2ccc(NS(=O)(=O)c3cccc4cccnc34)cc2)[C@H](C)C1 | 101 to 500 | 101 to 500 | 101 to 500 | 101 to 500 | > 0.5 | < 0.1 | < 0.1 |  |  |  |  |  |  |  |
| COc1ccccc1N1CCN(C(=O)c2ccc(NS(=O)(=O)c3cccc4cccnc34)cc2)C(C)C1 (centres unmarked) | 101 to 500 | 101 to 500 | 101 to 500 | 101 to 500 | > 0.5 | < 0.1 | < 0.1 | < 0.1 | 0.101 to 0.5 | < 0.1 |  |  |  |  |
| O=C(c1ccc(NS(=O)(=O)c2cccc3cccnc23)cc1)N1CCN(C[C@H]2CCOC2)CC1 | 101 to 500 | 1 to 100 | 101 to 500 | 101 to 500 | 0.101 to 0.5 | < 0.1 | < 0.1 | < 0.1 |  | < 0.1 |  |  |  |  |
| O=C(c1ccc(NS(=O)(=O)c2cccc3cccnc23)cc1)N1CCN(C[C@@H]2CCOC2)CC1 | 101 to 500 | 1 to 100 | 101 to 500 | 1 to 100 | 0.101 to 0.5 | < 0.1 | < 0.1 | < 0.1 |  | < 0.1 |  |  |  |  |
| C[C@H]1CN(Cc2ccc(F)c(F)c2F)CCN1C(=O)c1ccc(NS(=O)(=O)c2cccc3cccnc23)cc1 [drawing 87] |  |  |  |  |  |  |  |  |  |  | A (a % activation at 1 μM of from 1 to 100) | B (a % activation at 1 μM of from 101 to 500) | A (a % activation at 1 μM of from 1 to 100) | A (a % activation at 1 μM of from 1 to 100) |

Source: patent US9404081B2, “Pyruvate kinase activators for use in therapy” (AGIOS PHARMACEUTICALS, INC., priority 2011, dated 2016)
